Each block holds one compound with its values, some of them ahead of it.
Legend:
[1] = biological target: murine CCL2 wild type (monocyte chemoattractant protein-1) (murine) (UniProt P10148); test: NMR translational diffusion
[2] = biological target: murine CCL2 (mCCL2-P8A, MCP-1) (Mus musculus, UniProt P10148, P31A); test: intrinsic Trp fluorescence quenching titration; format: binding
[3] = biological target: murine CCL2 (mCCL2-WT, MCP-1) (Mus musculus, UniProt P10148); test: intrinsic Trp fluorescence quenching titration; format: binding
Chain of murine CCL2 (mCCL2-WT, MCP-1) (P10148 24-99 limits assumed): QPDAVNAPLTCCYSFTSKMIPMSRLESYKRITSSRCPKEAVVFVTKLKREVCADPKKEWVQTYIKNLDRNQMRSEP

[4] = biological target: human CCL2 (hCCL2-P8A, MCP-1) (Homo sapiens, UniProt P13500, P31A); test: intrinsic Trp fluorescence quenching titration; format: binding
Chain of human CCL2 (hCCL2-P8A, MCP-1) (P13500 24-99 P31A): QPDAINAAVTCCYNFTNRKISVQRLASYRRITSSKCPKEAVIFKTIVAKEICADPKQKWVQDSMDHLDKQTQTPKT

[5] = biological target: human CCL2 (hCCL2-WT, MCP-1) (Homo sapiens, UniProt P13500); test: intrinsic Trp fluorescence quenching titration; format: binding
Chain of human CCL2 (hCCL2-WT, MCP-1) (P13500 24-99): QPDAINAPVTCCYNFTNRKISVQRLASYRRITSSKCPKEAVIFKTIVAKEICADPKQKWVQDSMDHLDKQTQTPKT

[6] = biological target: DDAH (Pseudomonas aeruginosa) (UniProt Q9I4E3); details: cited from earlier work

Chain of murine CCL2 (mCCL2-P8A, MCP-1) (P10148 24-99 P31A limits assumed): as the sequence (P10148 24-99 limits assumed) above, with P8A counted along it
Chain of DDAH (Q9I4E3 whole entry): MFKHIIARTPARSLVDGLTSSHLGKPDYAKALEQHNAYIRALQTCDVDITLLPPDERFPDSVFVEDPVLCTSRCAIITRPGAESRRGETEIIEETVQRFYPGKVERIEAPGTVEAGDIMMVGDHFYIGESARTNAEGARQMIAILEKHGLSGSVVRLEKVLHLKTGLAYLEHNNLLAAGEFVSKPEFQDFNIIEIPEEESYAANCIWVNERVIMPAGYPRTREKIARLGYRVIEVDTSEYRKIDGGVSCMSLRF

stoichiometry N [1]: 2
Compound: murine CCL2 wild type (monocyte chemoattractant protein-1) (from UniProt P10148 24-148) (natural protein)

Kd [2]: 270 ± 20 nM | Kd [3]: 290 ± 20 nM | Kd [4]: 260 ± 20 nM | Kd [5]: 250 ± 20 nM
Compound: O=C(O)[C@H]1O[C@@H](Oc2cc3oc(-c4ccccc4)cc(=O)c3c(O)c2O)[C@H](O)[C@@H](O)[C@@H]1O [BA]

Compound: DDAH (from UniProt Q9I4E3)
Kd [6]: 500 nM
